This note sets out measurements from patent publication US20210347823A1, “METHODS OF PHYSICOCHEMICAL-GUIDED PEPTIDE DESIGN AND NOVEL PEPTIDES DERIVED THEREFROM” (Massachusetts Institute of Technology, priority 2018, published 2021).

The subject of data set [1] is HEK293 human embryonic kidney cells. Nature of the data set: Cytotoxicity assay (MTS). Particulars: for Cytotoxicity: HEK293, 48 h, MTS, peptides 0-64 μmol L^−1. The class given is cell-based. The protocol: FIGS. 7A-7B. Cytotoxicity of engineered peptides. FIG. 7A. Schematic of the experimental design for cytotoxicity assays of Pol-CP—NH2 and derivatives against HEK293 human embryonic kidney cells. Briefly, cells were cultured in DMEM medium supplemented with FBS and antibiotics at 37° C. and 5% CO2. FIG. 7B. Results obtained by seeding HEK293 50,000 cells and incubating with peptides' solution (0-64 μmol L^−1) at 37° C. for 48 h. Cell viability was measured by MTS assay. All experiments were performed in triplicate.
Cytotoxicity assays. Human embryonic kidney 293 (HEK 293) cells were cultured in Dulbecco's Modified Eagle Medium (DMEM) supplemented with 10% Fetal Bovine Serum (FBS) and 1% penicillin-streptomycin at 37° C. in 5% CO2. The day before treatment, 50,000 HEK 293 cells were seeded into each well in 96-well plates. The peptides were added at concentrations ranging from 0 to 64 ? mol L^−1 and 48 h after exposure, cell viability was measured by means of MTS (dimethylthiazol-carboxymethoxyphenyl-sulfophenyl-tetrazolium) assay. Experiments were performed in triplicate for each condition.

The next data set concerns human red blood cells. Kind of data set: Hemolytic activity assay. The class given is cell-based. To be noted: for HC50: concentration needed for 50% hemolysis, human RBC in PBS, room temperature, 1 h, 0.1-100 μmol L^−1. How it is done:
(§1) FIGS. 6A-6B. Hemolysis and resistance to protease-mediated degradation of engineered peptides. FIG. 6A. Schematic of experimental design and hemolytic assay results of Pol-CP—NH2 and derivatives, where hemolytic activity was evaluated by incubating the peptides (0.1-100 μmol L^−1) with human red blood cells in PBS at room temperature for 1 h. Experiments were performed in triplicate, (*p<0.05). FIG. 6B. Resistance to degradation of Pol-CP—NH2 and analogs exposed to fetal bovine serum (FBS) proteases for 6 h. Experiments were done in triplicate.
Hemolytic Activity Assays. Human erythrocytes were collected and washed three times by centrifugation at 300×g with PBS (pH 7.4). After the last centrifugation, the cells were resuspended in PBS pH 7.4. Aliquots at a concentration of 0.1 to 100 ? mol L^−1 of the peptides were added to the 96-well microplate, where in each well containing 50 ? L of a suspension of erythrocytes to 0.4% in a phosphate saline buffer (10 mmol L^−1 Na2HPO4, 1.8 mmol L^−1 […], pH 7.4, 137 mmol L^−1 NaCl and 2.7 mmol L^−1KCl). After that, the samples were incubated at room temperature for 1 h. Hemolysis was determined by reading absorbance at 405 nm of each well in a bed of plates. 1% SDS in PBS solution was used as positive control (Shalel S. et al., J. Colloid Interface Sci. 252, 66-76 (2002); Love L. J. Cell. Comp. Physiol. 36, 133-148 (1950)) and as negative control was used PBS only. MHC was defined as the maximal non-hemolytic concentration.

For data set [2], the system named is Gram-positive bacteria, Gram-negative bacteria and fungi (twelve different strains). Nature of the data set: Liquid growth inhibition MIC against larger panel of microorganisms (MIC average). The class given is cell-based. Particulars: average of MIC over twelve different strains. From the text:
FIGS. 5A-5D. Antimicrobial activity of second-generation library of synthetic peptides. FIG. 5A. In vitro activity of Pol-CP—NH2 and second generation of analogs against Gram-positive bacteria (Micrococcus luteus, Staphylococcus aureus, Staphylococcus epidermidis and Bacillus megaterium), Funghi (Candida albicans and Candida tropicalis) and Gram-negative bacteria (Escherichia coli, Enterobacter cloacae and Serratia marcescens). Experiments performed in triplicates. FIG. 5B. MIC (μmol L^−1) average vs fH in TFE/Water solution. FIG. 5C. Graph correlating MIC (μmol L^−1) averages vs H and (FIG. 5D) MIC (μmol L^−1) averages vs μH, where dots above the dashed line represent peptides with lower activity and dots below the dashed line show peptides with higher activity compared to the wild-type, in which one can observe ranges of optimal activity in determined intervals of H and μH values.
Microorganisms. The following strains were used: Micrococcus luteus A270, Staphylococcus aureus ATCC29213, Staphylococcus epidermidis ATCC12228, Bacillus megaterium ATCC10778 Escherichia coli SBS 363, Enterobacter cloacae ®-12, Serratia marcescens ATCC4112, Candida albicans MDM8, Candida tropicalis IOC4560 from Instituto Butanta, Sao Paulo, Brazil, and Escherichia coli BL21, Pseudomonas aeruginosa PA14, Pseudomonas aeruginosa PA01 and Staphylococcus aureus ATCC12600 from Synthetic Biology Group at MIT.
MIC assays. The MIC assays were performed using the broth microdilution method (Wiegand I. et al., Protoc. 3, 163-175 (2008); de la Fuente-Núñez C. et al., Antimicrob. Agents Chemother. 56, 2696-2704 (2012)) in sterile 96-well polypropylene microtiter plates. Peptides were added to the plate as solutions in BM2 minimal medium in concentrations ranging from 0 to 128 ? mol L^−1, and the bacteria were inoculated at a final concentration of 5×10^5 CFU mL^−1 per well. The plates were incubated at 37° C. for 24 h. The MIC was defined as the lowest concentration of compound at which no growth was observed. Additional liquid growth inhibition assays were done in Peptone Broth (PB, 0.5% NaCl, 1% Peptone at pH 7.4) and Potato Dextrose Broth (Invitrogen) were used for antibacterial and antifungal assays, respectively. Briefly, bacteria or fungi were incubated with serial dilutions of polybia-CP and analogs (50-0.09 μmol L^−1) in a 96-well microplate at 37° C. The microbial growth was assessed by measurements in a model 354 Multiskan Ascent microplate reader at A595nm, after 18 and 24 h (bacteria and fungi, respectively) incubation on a model 347CD FANEM incubator. MIC was defined as the minimal inhibitory concentration that prevents 100% of the bacterial growth. All assays were done in triplicate.

Data set [3] in a line: Stability assay in fetal bovine serum. The class given is in vitro ADME. Particulars: for resistance to protease-mediated degradation: fetal bovine serum, 6 h. The protocol: as §1
Stability Assays. The stability assay was performed with GIBCO fetal bovine serum diluted to 25% in water. 20 ? L of a 10 mg mL^−1 peptide solution was added to 1 mL 25% serum solution and kept at 37° C. The experiments were made in triplicate and 100 ? L aliquots were taken at 0, 0.5, 1, 2, 4 and 6 h. 10 ? L of TFA was added to the aliquots and the new solution was kept at 5° C. for 10 min, after that it was centrifuged at 14,000 rpm for 15 min, according to Powell et al. (Powell M. F. et al., Pharm. Res. 10, 1268-1273 (1993)). The reaction kinetics was followed by liquid chromatography and the percentage of remaining peptide was calculated by integrating the peptide peak area.

The subject of data set [4] is E. coli BL21, P. aeruginosa PA01 and PA14, and S. aureus ATCC12600. Nature of the data set: In vitro antimicrobial activity against first set of bacteria (Ala-scan analogs). The class given is cell-based. To be noted: Gram-positive and Gram-negative bacteria. From the text:
FIGS. 2A-2E. Design, physicochemical features and activity of Pol-CP—NH2 and Ala-scan analogs. FIG. 2A. Theoretical physicochemical properties of interest of the wild type and Ala-scan analogs, where H denotes hydrophobicity, μH is the hydrophobic moment, q represents the net charge and P/N is the ratio of polar/non-polar residues in the sequence. Top to bottom, left to right the sequences correspond to SEQ ID NOs: 1-13. FIG. 2B. Schematic of the in vitro biological activity experimental design. Briefly, 10^4 bacterial cells and serially diluted peptides (0-128 μmol L^−1) were added to a 96-well plate and incubated at 37° C. One day after the exposure, the solution in each well was measured in a microplate reader (600 nm) to check inhibition of bacteria compared to the untreated controls and presented as heat maps of antimicrobial activities (μmol L^−1) against four bacteria strains: E. coli strain BL21, S. aureus strain ATCC12600 and P. aeruginosa strains PA01, and PA14. Assays were performed in triplicates. FIG. 2C. Graph correlating MIC (μmol L^−1) averages vs H and (FIG. 2D) MIC (μmol L^−1) averages vs μH, where dots […] the dashed line show peptides with higher activity compared to the wild type, in which one can observe ranges of optimal activity in determined intervals of H and μH values. FIG. 2E. […]

Where no end group is shown, it is not given here.

By HC50 is commonly meant the concentration that lyses half of the red blood cells. A lower HC50 goes with stronger haemolysis. As to “ILGKILGLLKSL-NH2 [Peptide 15, ILGKILGLLKSL-NH2]”, the Cytotoxicity in data set [1] came out at 32.0 µmol/L. Besides, the “cytotoxic concentration relative to MIC against P. aeruginosa” value in data set [1] (HEK293 cytotoxicity vs MIC) is recorded as “two- to four-fold higher”. The HC50 with human red blood cells is more than 100.0 µmol/L. For the same compound, in data set [2], the “MIC Average” value turned out to be 3.3 µM. Moreover, the remaining at 6 h, 0.196 mg/mL in data set [3] (fetal bovine serum diluted to 25% in water, after six hours of exposure to fetal bovine serum, read-out: remaining peptide (% of initial concentration added)) is approximately 50%. In addition, the “resistance to protease-mediated degradation” value in data set [3] was “increased resistance to protease-mediated degradation”.
In turn, “ILGTILGLLKAL-NH2 [Peptide 11, ILGTILGLLKAL-NH2]” came in with a Cytotoxicity in data set [1] of 64.0 µmol/L.
Same read-out and setting: to “ILGTALGLLKSL-NH2 [Peptide 5, ILGTALGLLKSL-NH2]” belongs more than 64.0 µmol/L.
Turning to “GLGTILGLLKSL-NH2 [Peptide 20, GLGTILGLLKSL-NH2]”, in data set [1], the Cytotoxicity is more than 64.0 µmol/L. Moreover, the HC50 with human red blood cells is more than 100.0 µmol/L. Besides, the “MIC Average” value in data set [2] stood at 16.7 µM. In data set [3], the “resistance to protease-mediated degradation” value is listed as “degraded in a few minutes”.
As for ILGTIAGLLKSL-NH2 [Peptide 6], the “antimicrobial activity compared with wild type” value in data set [4] was “preserved the antimicrobial activity”.
Compound “ILGTKLGLLKSL-NH2 [Peptide 14, ILGTKLGLLKSL-NH2]” came in with an HC50 in the data set with human red blood cells of more than 100.0 µmol/L. In data set [2], the “MIC Average” value was more than 50.0 µM.
“ILGTLLGLKKSL-NH2 [Peptide 13, ILGTLLGLKKSL-NH2]” yielded a 50% haemolytic concentration (HC50) with human red blood cells of more than 100.0 µmol/L. In addition, in data set [2], the “MIC Average” value was more than 50.0 µM.
For `CC[C@H](C)[C@H](N)C(=O)N[C@@H](CC(C)C)C(=O)NCC(=O)N[C@H](C(=O)N[C@H](C(=O)N[C@@H](CC(C)C)C(=O)NCC(=O)N[C@@H](CC(C)C)C(=O)N[C@@H](CC(C)C)C(=O)N[C@@H](CCCCN)C(=O)N[C@@H](CO)C(N)=O)[C@@H](C)CC)[C@@H](C)O` [Peptide 18], the concentration for 50% haemolysis (HC50) in the data set on human red blood cells is more than 100.0 µmol/L. Also, in data set [2], the “MIC Average” value was more than 50.0 µM.
In turn, “ILGTILGLFKSL-NH2 [Peptide 17, ILGTILGLFKSL-NH2]” registered an HC50 with human red blood cells of 50.0 µmol/L. In addition, the “hemolytic activity (concentration at which hemolytic)” value in the data set on human red blood cells (human red blood cells, range evaluated 0-100 μmol L^−1, listed as [Phe]^9-Pol-CP—NH2) was approximately 50 µmol/L. Further, the “hemolytic activity” value in the data set with human red blood cells (range of concentrations evaluated 0-100 μmol L^−1) is “hemolytic”. Moreover, in data set [2], the “MIC Average” value amounted to 20.0 µM.
“ILATILGLLKSL-NH2 [Peptide 3, ILATILGLLKSL-NH2]” gave a Cytotoxicity in data set [1] of more than 64.0 µmol/L.
Take “ILGTILALLKSL-NH2 [Peptide 7, ILGTILALLKSL-NH2]”: in data set [1], the Cytotoxicity amounted to 32.0 µmol/L.
